From article PMC6407917, “Identification of GSK3186899/DDD853651 as a Preclinical Development Candidate for the Treatment of Visceral Leishmaniasis” (Journal of Medicinal Chemistry, 2018)

Tests used:
Experiment in all cases: biochemical
Parameters in all cases: species or system HEK293/K-562/placenta mixed human extract; Kinobeads chemoproteomic competition binding, quantified by TMT LC-MS/MS, dose response up to 20 uM
[1] = target: DYRK2 (Homo sapiens, UniProt Q92630)
[2] = target: TESK1 (Homo sapiens, UniProt Q15569)
Chain of TESK1 (Q15569 whole entry): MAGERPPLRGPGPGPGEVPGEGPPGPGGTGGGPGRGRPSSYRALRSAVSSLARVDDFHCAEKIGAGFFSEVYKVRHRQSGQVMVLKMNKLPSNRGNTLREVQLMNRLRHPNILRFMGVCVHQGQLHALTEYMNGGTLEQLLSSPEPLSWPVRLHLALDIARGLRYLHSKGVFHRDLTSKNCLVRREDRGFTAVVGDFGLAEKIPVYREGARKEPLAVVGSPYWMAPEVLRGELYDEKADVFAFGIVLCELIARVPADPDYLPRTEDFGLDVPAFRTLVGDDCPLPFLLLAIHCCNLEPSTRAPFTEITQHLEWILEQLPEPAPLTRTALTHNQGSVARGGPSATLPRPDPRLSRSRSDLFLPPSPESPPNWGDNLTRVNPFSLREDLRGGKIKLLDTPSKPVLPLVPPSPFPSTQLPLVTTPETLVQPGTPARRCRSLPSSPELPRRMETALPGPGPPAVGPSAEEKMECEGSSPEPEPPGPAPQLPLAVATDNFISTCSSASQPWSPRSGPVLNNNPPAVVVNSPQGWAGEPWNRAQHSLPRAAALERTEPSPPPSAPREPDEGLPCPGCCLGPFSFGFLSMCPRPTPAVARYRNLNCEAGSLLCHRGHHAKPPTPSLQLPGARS

[3] = target: MAP3K1 (Homo sapiens, UniProt Q13233)
[4] = target: IRAK3 (Homo sapiens, UniProt Q9Y616)
[5] = target: JAK3 (Homo sapiens, UniProt P52333)
[6] = target: MAPK3 (Homo sapiens, UniProt P27361)
Chain of MAPK3 (P27361 whole entry): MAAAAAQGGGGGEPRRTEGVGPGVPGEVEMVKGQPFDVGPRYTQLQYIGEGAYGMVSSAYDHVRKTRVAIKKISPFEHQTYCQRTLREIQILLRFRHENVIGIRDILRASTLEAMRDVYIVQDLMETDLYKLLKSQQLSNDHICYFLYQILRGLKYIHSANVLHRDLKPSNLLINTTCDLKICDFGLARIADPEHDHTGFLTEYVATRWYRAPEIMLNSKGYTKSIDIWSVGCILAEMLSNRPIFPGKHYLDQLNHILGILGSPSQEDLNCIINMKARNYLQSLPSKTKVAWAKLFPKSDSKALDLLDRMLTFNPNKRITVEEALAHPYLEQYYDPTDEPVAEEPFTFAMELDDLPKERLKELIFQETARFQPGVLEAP

[7] = target: CAMK2B (Homo sapiens, UniProt Q13554)
[8] = target: LATS1 (Homo sapiens, UniProt O95835)
Chain of LATS1 (O95835 whole entry): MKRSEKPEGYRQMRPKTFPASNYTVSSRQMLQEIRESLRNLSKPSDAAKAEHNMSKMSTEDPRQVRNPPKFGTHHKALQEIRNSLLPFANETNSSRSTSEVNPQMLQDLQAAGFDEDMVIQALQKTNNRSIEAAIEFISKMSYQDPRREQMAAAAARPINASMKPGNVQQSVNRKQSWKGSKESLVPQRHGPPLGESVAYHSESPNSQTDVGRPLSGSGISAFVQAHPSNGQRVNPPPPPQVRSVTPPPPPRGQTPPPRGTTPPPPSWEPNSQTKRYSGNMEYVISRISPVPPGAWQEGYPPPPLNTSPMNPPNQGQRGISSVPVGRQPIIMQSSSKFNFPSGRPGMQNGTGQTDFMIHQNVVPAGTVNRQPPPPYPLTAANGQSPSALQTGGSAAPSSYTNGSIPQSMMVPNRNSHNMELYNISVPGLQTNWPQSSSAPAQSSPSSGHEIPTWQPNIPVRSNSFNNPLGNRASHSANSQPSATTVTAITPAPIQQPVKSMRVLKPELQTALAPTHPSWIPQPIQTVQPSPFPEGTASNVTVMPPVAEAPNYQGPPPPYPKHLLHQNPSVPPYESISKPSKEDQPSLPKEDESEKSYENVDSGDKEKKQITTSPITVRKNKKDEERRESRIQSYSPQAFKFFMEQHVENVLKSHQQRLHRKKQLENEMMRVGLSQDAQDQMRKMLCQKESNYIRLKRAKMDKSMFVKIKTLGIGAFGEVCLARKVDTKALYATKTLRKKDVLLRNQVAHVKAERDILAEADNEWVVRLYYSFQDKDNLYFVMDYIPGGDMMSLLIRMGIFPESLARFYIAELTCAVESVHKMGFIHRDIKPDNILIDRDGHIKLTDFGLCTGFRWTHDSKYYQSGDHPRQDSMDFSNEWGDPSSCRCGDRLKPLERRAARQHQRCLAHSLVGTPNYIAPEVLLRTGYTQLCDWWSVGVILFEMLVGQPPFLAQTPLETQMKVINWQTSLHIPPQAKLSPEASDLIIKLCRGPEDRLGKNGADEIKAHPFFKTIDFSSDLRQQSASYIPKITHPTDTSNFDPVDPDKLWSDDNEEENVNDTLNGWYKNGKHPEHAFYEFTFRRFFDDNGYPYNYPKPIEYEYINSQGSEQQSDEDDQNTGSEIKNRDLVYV

[9] = target: ABL2 (Homo sapiens, UniProt P42684)
Chain of ABL2 (P42684 whole entry): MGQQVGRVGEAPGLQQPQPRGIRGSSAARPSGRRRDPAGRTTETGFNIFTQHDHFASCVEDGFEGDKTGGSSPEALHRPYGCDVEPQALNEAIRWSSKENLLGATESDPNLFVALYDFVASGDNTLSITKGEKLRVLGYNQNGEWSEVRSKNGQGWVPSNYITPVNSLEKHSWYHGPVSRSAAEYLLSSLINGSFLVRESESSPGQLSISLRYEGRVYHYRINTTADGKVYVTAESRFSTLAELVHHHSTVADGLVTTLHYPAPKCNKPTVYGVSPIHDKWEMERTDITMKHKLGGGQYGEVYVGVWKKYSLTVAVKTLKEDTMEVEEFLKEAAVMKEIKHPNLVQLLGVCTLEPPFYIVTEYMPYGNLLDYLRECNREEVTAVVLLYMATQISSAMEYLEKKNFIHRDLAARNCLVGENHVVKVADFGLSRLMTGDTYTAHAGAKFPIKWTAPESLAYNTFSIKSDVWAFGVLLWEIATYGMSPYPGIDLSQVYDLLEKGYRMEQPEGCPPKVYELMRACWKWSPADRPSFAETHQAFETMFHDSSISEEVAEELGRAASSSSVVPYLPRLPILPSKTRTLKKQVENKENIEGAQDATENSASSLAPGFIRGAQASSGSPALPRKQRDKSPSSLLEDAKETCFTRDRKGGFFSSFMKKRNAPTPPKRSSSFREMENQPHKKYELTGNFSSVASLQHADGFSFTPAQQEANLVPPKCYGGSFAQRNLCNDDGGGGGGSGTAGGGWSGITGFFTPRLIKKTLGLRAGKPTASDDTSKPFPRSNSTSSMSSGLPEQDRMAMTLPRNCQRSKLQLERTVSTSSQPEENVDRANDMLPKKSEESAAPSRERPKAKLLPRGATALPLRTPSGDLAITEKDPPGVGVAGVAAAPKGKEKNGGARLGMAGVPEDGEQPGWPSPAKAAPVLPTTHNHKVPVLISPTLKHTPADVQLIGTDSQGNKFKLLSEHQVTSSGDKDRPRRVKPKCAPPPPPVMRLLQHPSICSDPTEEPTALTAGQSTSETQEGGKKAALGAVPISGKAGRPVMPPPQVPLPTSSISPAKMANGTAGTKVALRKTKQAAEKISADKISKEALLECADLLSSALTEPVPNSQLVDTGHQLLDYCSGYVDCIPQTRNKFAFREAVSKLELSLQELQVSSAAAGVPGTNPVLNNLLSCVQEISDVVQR

[10] = target: STK17A (Homo sapiens, UniProt Q9UEE5)
[11] = target: NEK3 (Homo sapiens, UniProt P51956)
[12] = target: RPS6KA2 (Homo sapiens, UniProt Q15349)
[13] = target: FGR (Homo sapiens, UniProt P09769)
[14] = target: AURKA (Homo sapiens, UniProt O14965)
Chain of AURKA (O14965 whole entry): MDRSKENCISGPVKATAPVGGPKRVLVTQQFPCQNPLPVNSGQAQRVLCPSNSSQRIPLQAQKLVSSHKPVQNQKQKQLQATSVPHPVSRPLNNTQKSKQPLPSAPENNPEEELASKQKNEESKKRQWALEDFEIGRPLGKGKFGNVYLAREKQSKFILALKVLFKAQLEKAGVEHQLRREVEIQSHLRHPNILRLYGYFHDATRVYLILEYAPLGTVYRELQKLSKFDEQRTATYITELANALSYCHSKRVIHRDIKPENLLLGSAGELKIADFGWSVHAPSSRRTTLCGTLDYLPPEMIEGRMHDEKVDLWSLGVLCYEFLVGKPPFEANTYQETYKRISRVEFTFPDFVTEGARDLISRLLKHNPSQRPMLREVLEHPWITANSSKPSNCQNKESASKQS

[15] = target: KDR (Homo sapiens, UniProt P35968)
[16] = target: ULK1 (Homo sapiens, UniProt O75385)
Chain of ULK1 (O75385 whole entry): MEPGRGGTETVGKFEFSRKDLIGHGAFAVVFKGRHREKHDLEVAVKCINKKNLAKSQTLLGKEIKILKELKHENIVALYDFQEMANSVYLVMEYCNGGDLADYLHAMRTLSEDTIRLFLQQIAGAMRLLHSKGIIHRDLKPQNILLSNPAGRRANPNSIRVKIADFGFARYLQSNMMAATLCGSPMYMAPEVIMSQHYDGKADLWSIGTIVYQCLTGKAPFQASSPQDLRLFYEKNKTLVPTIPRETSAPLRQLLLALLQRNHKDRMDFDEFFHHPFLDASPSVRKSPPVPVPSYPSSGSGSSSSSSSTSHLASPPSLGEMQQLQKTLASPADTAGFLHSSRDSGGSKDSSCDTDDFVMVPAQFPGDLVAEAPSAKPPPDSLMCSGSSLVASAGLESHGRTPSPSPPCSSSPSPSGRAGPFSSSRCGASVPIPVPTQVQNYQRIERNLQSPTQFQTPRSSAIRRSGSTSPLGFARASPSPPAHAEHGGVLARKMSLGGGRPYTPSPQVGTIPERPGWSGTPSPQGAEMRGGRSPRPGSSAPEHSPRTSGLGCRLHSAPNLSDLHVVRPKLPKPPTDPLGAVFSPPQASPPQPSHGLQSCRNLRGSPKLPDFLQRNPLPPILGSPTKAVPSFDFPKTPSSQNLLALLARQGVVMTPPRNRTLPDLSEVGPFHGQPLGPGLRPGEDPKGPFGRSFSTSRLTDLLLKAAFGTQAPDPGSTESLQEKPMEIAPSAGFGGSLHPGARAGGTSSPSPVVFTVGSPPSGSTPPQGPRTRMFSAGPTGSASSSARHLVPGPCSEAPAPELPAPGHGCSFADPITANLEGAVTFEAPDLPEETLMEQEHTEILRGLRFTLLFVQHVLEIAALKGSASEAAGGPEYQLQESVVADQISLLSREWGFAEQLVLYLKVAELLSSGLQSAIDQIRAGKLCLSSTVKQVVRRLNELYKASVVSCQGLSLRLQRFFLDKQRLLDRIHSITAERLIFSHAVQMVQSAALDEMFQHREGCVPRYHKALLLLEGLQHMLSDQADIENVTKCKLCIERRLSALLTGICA

[17] = target: YES1 (Homo sapiens, UniProt P07947)
[18] = target: EPHA2 (Homo sapiens, UniProt P29317)
[19] = target: FES (Homo sapiens, UniProt P07332)
[20] = target: MAP3K9 (Homo sapiens, UniProt P80192)
[21] = target: EPHA3 (Homo sapiens, UniProt P29320)

Measured: IC50

COc1nc(N[C@H]2CC[C@H](NS(=O)(=O)CC(C)C)CC2)nc2[nH]nc(N3CCOC[C@H]3C)c12 [compound 39, N-(trans-4-((4-Methoxy-3-((R)-3-methylmorpholino)-1H-pyrazolo[3,4-d]pyrimidin-6-yl)amino)cyclohexyl)-2-methylpropane-1-sulfonamide]
≥ 20 µM: all assays above
